{
  "source": "patent US12358892B2",
  "about": "“Metalloenzyme inhibitors for treating cancers, Alzheimer's disease, hemochromatosis, and other disorders” (Miralogx LLC, priority 2020, dated 2025)",
  "key": {"[1]": {"system": "12 human primary cell-based systems", "assay": "BioMAP Diversity PLUS panel, protein biomarker readouts and cytotoxicity", "excerpt": "This example describes testing the compound prepared in Example 1 in the BioMAP Diversity PLUS (Eurofins Discovery, Burlingame, California) panel of 12 human primary cell-based systems designed to model different aspects of the human body in an in vitro format. The 12 systems in the Diversity PLUS panel allow test agent characterization in an unbiased way across a broad set of systems modeling various human disease states. BioMAP systems are constructed with one or more primary cell types from healthy human donors, with stimuli (such as cytokines or growth factors) added to capture relevant signaling networks that naturally occur in human tissue or pathological conditions. Vascular biology is modeled in both a Th1 (3C system) and a Th2 (4H system) inflammatory environment, as well as in a Th1 inflammatory state specific to arterial smooth muscle cells (CASM3C system). Additional systems recapitulate aspects of the systemic immune response including monocyte-driven Th1 inflammation (LPS system) or T cell stimulation (SAg system), chronic Th1 inflammation driven by macrophage activation (lMphg system) and the T cell-dependent activation of B cells that occurs in germinal centers (BT system). The BE3C system (Th1) and the BF4T system (Th2) represent airway inflammation of the lung, while the MyoF system models myofibroblast-lung tissue remodeling. Lastly, skin biology is addressed in the KF3CT system modeling Th1 cutaneous inflammation and the HDF3CGF system modeling wound healing.\nThe X-axis lists the quantitative protein-based biomarker readouts measured in each system. The Y-axis represents a log-transformed ratio of the biomarker readouts for the drug-treated sample (n=1) over vehicle controls (n≥6). The grey region around the Y-axis represents the 95% significance envelope generated from historical vehicle controls. Biomarker activities are annotated when two or more consecutive concentrations change in the same direction relative to vehicle controls, are outside of the significance envelope, and have at least one concentration with an effect size >20% (|log 10 ratio|>0.1). Biomarker key activities are described as modulated if these activities increase in some systems, but decrease in others. Cytotoxicity is indicated on the profile plot by a thin black arrow above the X-axis, and antiproliferative effects are indicated by a thick grey arrow. Cytotoxicity and antiproliferative arrows only require one concentration to meet the indicated threshold for profile annotation. As summarized in Table 2 below, the compound was active with 35 annotated readouts. Specifically, the compound impacted inflammation-related activities (decreased Eotaxin 3, VCAM-1, MCP-1, SAA, sTNFα, MIP-1α; increased IL-1α, IL-6; modulated IL-8), immunomodulatory activities (decreased CD40, sIL-1β, sIgG, M-CSF, sIL-17A, sIL-6, sIL-17F, sIL-2), tissue remodeling activities (decreased PAI-1, uPAR, αSMA, Keratin 8/18; increased collagen I, MMP-1), and hemostasis-related activities (increased TF).\nBioMAP® panels consist of human primary cell-based systems designed to model different aspects of the human body in an in vitro format. BioMAP® systems are constructed with one or more primary cell types from healthy human donors, with stimuli (such as cytokines or growth factors) added to capture relevant signaling networks that naturally occur in human tissue or pathological conditions. Vascular biology is modeled in both a Th1 (3C system) and a Th2 (4H system) inflammatory environment, as well as in a Th1 inflammatory state specific to arterial smooth muscle cells (CASM3C system). Additional systems recapitulate aspects of the systemic immune response including monocyte-driven Th1 inflammation (LPS system) or T cell stimulation (SAg system), chronic Th1 inflammation driven by macrophage activation (Mphg system) and the T cell-dependent activation of B cells that occurs in germinal centers (BT system). […]"}, "B cells": {"system": "B cells", "assay": "BioMAP proliferation readout, B cells", "assay_type": "cell-based, human", "conditions": "100 μM, 33 μM, 11 μM", "excerpt": "The X-axis lists the quantitative protein-based biomarker readouts measured in each system. The Y-axis represents a log-transformed ratio of the biomarker readouts for the drug-treated sample (n=1) over vehicle controls (n≥6). The grey region around the Y-axis represents the 95% significance envelope generated from historical vehicle controls. Biomarker activities are annotated when two or more consecutive concentrations change in the same direction relative to vehicle controls, are outside of the significance envelope, and have at least one concentration with an effect size >20% (|log 10 ratio|>0.1). Biomarker key activities are described as modulated if these activities increase in some systems, but decrease in others. […] As summarized in Table 2 below, the compound was active with 35 annotated readouts. […]\nHuman primary cells in BioMAP® systems are used at early passage (passage 4 or earlier) to minimize adaptation to cell culture conditions and preserve physiological signaling responses. […] Test agents prepared in either DMSO (small molecules; final concentration ≤0.1%) or PBS (biologics) are added at the indicated concentrations 1-hr before stimulation, and remain in culture for 24-hrs or as otherwise indicated (48-hrs, MyoF system; 72-hrs, BT system (soluble readouts); 168-hrs, BT system (secreted IgG)). […]"}, "[2]": {"conditions": "Example 3.2, hemostasis-related activities"}, "[3]": {"conditions": "Example 3.2, immunomodulatory activities"}, "[4]": {"conditions": "Example 3.2, inflammation-related activities"}, "[5]": {"conditions": "Example 3.2, tissue remodeling activities"}},
  "data": [
    {"molecule": "C1=NC(c2cncc(C3CCC=N3)c2)CC1", "note": "(stereo not drawn) [3,5-bis(3,4-dihydro-2H-pyrrol-2-yl)pyridine]", "values": [
      {"measurement": "LDLR", "setting": "[1]; Example 3.2", "result": "decrease"},
      {"measurement": "TF", "setting": "[1]; [2]", "result": "increased"},
      {"measurement": "TM", "setting": "[1]; [2]", "result": "decreased"},
      {"measurement": "CD38", "setting": "[1]; [3]", "result": "decreased"},
      {"measurement": "CD40", "setting": "[1]; [3]", "result": "decreased"},
      {"measurement": "HLA-DR", "setting": "[1]; [3]", "result": "decreased"},
      {"measurement": "sIL-1β", "setting": "[1]; [3]", "result": "decreased"},
      {"measurement": "sIL-2", "setting": "[1]; [3]", "result": "decreased"},
      {"measurement": "sIL-6", "setting": "[1]; [3]", "result": "decreased"},
      {"measurement": "sIL-17A", "setting": "[1]; [3]", "result": "decreased"},
      {"measurement": "sIL-17F", "setting": "[1]; [3]", "result": "decreased"},
      {"measurement": "sIgG", "setting": "[1]; [3]", "result": "decreased"},
      {"measurement": "Eotaxin 3", "setting": "[1]; [4]", "result": "decreased"},
      {"measurement": "IL-6", "setting": "[1]; [4]", "result": "decreased"},
      {"measurement": "IL-8", "setting": "[1]; [4]", "result": "modulated"},
      {"measurement": "MCP-1", "setting": "[1]; [4]", "result": "decreased"},
      {"measurement": "MIG", "setting": "[1]; [4]", "result": "decreased"},
      {"measurement": "P-selectin", "setting": "[1]; [4]", "result": "decreased"},
      {"measurement": "VCAM-1", "setting": "[1]; [4]", "result": "decreased"},
      {"measurement": "sPGE2", "setting": "[1]; [4]", "result": "increased"},
      {"measurement": "sTNFα", "setting": "[1]; [4]", "result": "modulated"},
      {"measurement": "Collagen IV", "setting": "[1]; [5]", "result": "decreased"},
      {"measurement": "MMP9", "setting": "[1]; [5]", "result": "decreased"},
      {"measurement": "MMP-1", "setting": "[1]; [5]", "result": "decreased"},
      {"measurement": "PAI-1", "setting": "[1]; [5]", "result": "decreased"},
      {"measurement": "TIMP-1", "setting": "[1]; [5]", "result": "decreased"},
      {"measurement": "alphaSMA", "setting": "[1]; [5]", "result": "decreased"},
      {"measurement": "uPAR", "setting": "[1]; [5]", "result": "decreased"},
      {"measurement": "cytotoxicity", "setting": "[1]; at the concentrations tested in this study", "result": "not cytotoxic"},
      {"measurement": "antiproliferative effect on B cells", "setting": "B cells", "result": "antiproliferative"}
    ]}
  ]
}
